We go through two molecules from patent US5961483A, “Iontophoretic delivery of cell adhesion inhibitors” (priority 1997, dated 1999).

Broadly, the solubility is the dissolved amount per volume that the medium holds. Lower therefore signals little dissolved substance.

Converted amounts (≈) assume the structure as drawn. “And” between values parts separate entries of the source, which are not always exact repeats. Equal values may be shown once. Where a name gives a salt, the structure may show the parent alone.

Data set [1] can be described thus: In vivo swine experiments (iontophoretic delivery, plasma levels; comparison with constant IV infusion). Also noted: species or system Yorkshire swine. On the procedure: Patch Design: Same as in Example 1.
Experimental Protocol: In each experiment, the patches were loaded with a 20 mg/mL solution of the same IIb/IIIa antagonist used in Example 1 in 154 mM saline, immediately before application to the skin of the animals. Unanesthetized Yorkshire swine with weights of about 20 to 35 kg were used. The skin sites receiving the patches were wiped clean with moist gauze pads. Patches were overwrapped with an adhesive, elastic wrap to hold the patches in place. Separate constant current (100 μA) power supplies were provided for each iontophoresis patch system. Current and voltage readings were made and recorded by on-board dataloggers (Fluke databuckets).
Blood samples were withdrawn from the vena cava through an IV catheter into VACUTAINER™ blood collection tubes containing EDTA. After gentle mixing, the tubes were centrifuged to separate the plasma, which was transferred to clean polypropylene tubes and frozen on dry ice. Frozen samples were stored at -80° C. until assayed.
Results: FIGS. 4 and 5 provide a comparative illustration of the in vivo delivery of the GPIIb/IIIa antagonist (mentioned in Example 1) to pigs using constant IV infusion (FIG. 4) and constant iontophoresis (FIG. 5). IV infusion employed the acid form of the drug at an infusion rate of 10 μg/h.

The nature of data set [2]: Assay of extracts of the patch following completion of iontophoresis. Type of data set: in vitro ADME.
The nature of data set [3]: In vitro excised skin iontophoretic delivery (flow-through cells). The class given is in vitro ADME, porcine. The following applies: for delivery rate (FIG. 7): 50 mg/mL chloride salt. Here is the method:
Patch Designs: The 2 compartment patch design includes an absorbent drug reservoir with 2 cm^2 skin-contacting area and volume of 0.30 mL. The drug reservoir is separated from the electrode compartment with a 100 MWCO ultrafiltration membrane. The electrode compartment included a silver anode and cation exchange media in a hydrogel. A monolithic patch design was also used, consisting of a sandwich composed of a silver anode in the middle of 2 layers of absorbent material. The patches are assembled and loaded with the dosing solution just before applying to the skin.
Experimental Protocol: The iontophoretic delivery of a GPIIb/IIIa antagonist was carried out in a flow-through in vitro system. […] The patch was loaded a 10 mg/mL solution of the IIb/IIIa antagonist in 154 mM saline.
A silver chloride mesh return cathode was located upstream of the polycarbonate flow-through cells. Freshly dermatomed (1 mm) porcine skin was mounted in the cells on a porous support. The patches were dosed with aqueous solutions of the drug and then placed on top of the excised skin. The patches were secured by a spring-loaded mechanism that maintained even pressure over the patch. The cells were "perfused" by means of a peristaltic pump which pulls receiver solution through them. Effluents from the cells were collected with a fraction collector. Flow rates were typically 0.25 mL/min. The receiver solution was an isotonic pH 7.4 buffered saline solution containing 10 mM HEPES, 100 mM NaCl, PEG 400, and a surfactant, Pluronic P-103. lontophoresis current (50 μA) was provided by WPI power cells, and the applied currents and cell voltages were recorded with a Fluke databucket.
Results: The effluent receiver solution was measured in a series of six runs, to determine whether the ester was hydrolyzed during the period of the iontophoresis. Results were obtained by means of liquid scintillation counting (radioactivity), and HPLC-UV. The HPLC results are estimates based on calibration for the ester form only.
Patches: A dual compartment 2 cm^2 patch design, loaded with 100 mg/mL of the GPIIb/IIIa antagonist of Example 1, with a size exclusion or anion exchange membrane separator.
Experimental Protocol: See Example 1, with current applied at 400 μA.
Patches: A dual compartment 2 cm^2 patch design, loaded with 50 mg/mL chloride salt of the IIb/IIIa antagonist.
Experimental Protocol: See Example 1, current applied at 100 μA and 200 μA.
Patches: A dual compartment 2 cm^2 patch design, loaded with either: (1) a 1 mM NaCl, 150 mg/mL formulation of the IIb/IIIa antagonist of Example 1, or (2) a 75 mM NaCl, 100 mg/mL formulation of the drug.
Experimental Protocol: See Example 1, current applied at 100 μA for the 1 mM NaCl sample, and at 400 μA for the 75 mM NaCl sample.

Data set [4] can be described thus: Physicochemical properties. The following applies: pH 4.

`CCCCOC(=O)N[C@@H](CNC(=O)C[C@H]1CC(c2ccc(C(=N)N)cc2)=NO1)C(=O)OC` [GPIIb/IIIa antagonist, methyl-N^3-[2-{3-(4-formamidinophenyl)-isoxazolin-5(R)-yl}-acetyl]-N^2-(n-butyloxycarbonyl)-2,3-(S)-diaminopropanoate]: the “variability in plasma levels with iontophoresis” value in data set [1] (20 mg/mL in 154 mM saline patch) is reported as “extremely low”. Further, the “blood levels, iontophoresis compared with constant IV infusion (FIGS. 4 and 5)” value in data set [1] (20 mg/mL in 154 mM saline patch vs acid form IV at 10 μg/h, plasma acid drug form) is reported as “similar”. In addition, in data set [2], the “acid hydrolysis product in extracts of the patch” value is “no detectable acid hydrolysis product”. Moreover, the “constancy of flux (FIG. 3)” value in data set [3] is recorded as “very constant over the 24 hour period”. In data set [3] (1 mM NaCl, 150 mg/mL at 100 μA and 75 mM NaCl, 100 mg/mL at 400 μA, 24 hour iontophoresis), the “delivery rate profile (FIG. 8)” value is on record as “much more uniform delivery rates”. The “dependence of in vitro delivery on current (FIG. 3)” value in data set [3] (10 mg/mL drug, 9 mg/mL NaCl) is on record as “proportional to increase in current”. In addition, the “variability in delivery from skin to skin (FIG. 2)” value in data set [3] (10 mg/mL, 154 mM NaCl, 50 μA) is reported as “unexpectedly low”. Moreover, in data set [3] (dual compartment 2 cm^2 patch, 100 mg/mL, 400 μA), the “delivery, anion exchange compared with size exclusion membrane patch (FIG. 6)” value is recorded as “somewhat greater delivery”. For the same molecule, the “delivery rate profile (FIG. 6)” value in data set [3] (dual compartment patches, 100 mg/mL, 400 μA) was “the flux starts high, and falls as electrolyte cations accumulate with time”. Further, in data set [3] (effluent receiver solution, 10 mg/mL in 154 mM saline, 50 μA, six runs (sample 1-6)), the “Total (Liquid Scintillation Assay)” value was 4.76 µg/mL and 4.15 µg/mL and 4.05 µg/mL and 4.87 µg/mL and 5.56 µg/mL and 5.19 µg/mL. Moreover, the “metabolism of the positively charged ester to the uncharged zwitterion” value in data set [3] (in the skin or receptor fluid) is reported as “metabolized, to some extent”. The concentration in solution in data set [4] (solubility) was 80 mg/mL (≈ 179 mM).
In the case of `CCCCOC(=O)N[C@@H](CNC(=O)C[C@H]1CC(c2ccc(C(=N)N)cc2)=NO1)C(=O)OC` [chloride salt of the IIb/IIIa antagonist], the “delivery rate (FIG. 7)” value in data set [3] (100 μA, nearly flat delivery) is 10 to 20 µg/h; in data set [3] (200 μA, nearly constant delivery), 20 to 35 µg/h.
